Measured values as given in the Biogen ADME set (Fang et al. 2023).
In brackets after ≈: the same amount, converted by molar mass.

Conditions: for aqueous solubility: pH 6.8

Compound | MDR1-MDCK efflux ratio | intrinsic clearance, human liver microsomes [mL/min/kg] | intrinsic clearance, rat liver microsomes [mL/min/kg] | fraction unbound, human plasma | fraction unbound, rat plasma | aqueous solubility [µg/mL]
C=C1C[C@@H]2[C@H](CC[C@]3(C)C(=O)CC[C@@H]23)[C@@]2(C)C=CC(=O)C=C12 | 0.494 | ≤ 4.74 | ≤ 10.7 | – | – | –
CCc1cc(NS(C)(=O)=O)n(C)n1 | 2.54 | ≤ 4.74 | ≤ 10.7 | – | – | –
Cn1cc(C(=O)O)c(C2CCCCC2)n1 | 1.04 | ≤ 4.74 | ≤ 10.7 | – | – | 33.6 (≈ 161 µM)
O=C(Nc1ccc(Cl)cn1)C1(c2cccc(Cl)c2)CC1 | 0.574 | – | – | – | – | 0.33 (≈ 1.07 µM)
O=c1[nH]c2ccccc2n1C1CCN(Cc2csc(COc3ccc(F)cc3)n2)CC1 | – | 209 | 1090 | – | – | –
CCc1nsc(N2CCS(=O)(=O)CC2)n1 | – | ≤ 4.74 | ≤ 10.7 | – | – | –
CC(=O)Nc1cnn(CC2CCN(C)CC2)c1 | 3.56 | ≤ 4.74 | ≤ 10.7 | – | – | 23.5 (≈ 99.4 µM)
COc1ccc(C2(NCc3ccc(N4CCCC4=O)cc3)CC2)cc1 | 0.512 | 13.4 | 266 | – | – | 81.5 (≈ 242 µM)
Cc1noc(OCC(=O)N2CCCCCC2)n1 | 1.01 | ≤ 4.74 | ≤ 10.7 | – | – | 50.2 (≈ 210 µM)
O=C(O)c1nc(-c2ccccc2)oc1-c1ccccc1 | 0.802 | 6.99 | ≤ 10.7 | – | – | 40.8 (≈ 154 µM)
CN(Cc1ccccc1)C1(C(=O)N2CCNC(=O)CC2)Cc2ccccc2C1 | 8.66 | 113 | 2760 | 0.0803 | 0.0818 | –
COCC(=O)Nc1cccc(-n2cccc2)c1 | 0.498 | 205 | 129 | – | – | 50.9 (≈ 221 µM)
O=C1CCCc2nc(Nc3nc(-c4ccccc4)c4ccccc4n3)ncc21 | – | – | – | – | – | 0.16 (≈ 0.435 µM)
CC(c1nnc(-c2cccs2)o1)N1CCC(n2c(=O)[nH]c3ccccc32)CC1 (stereo not given) | 21.1 | 18.1 | 273 | – | – | 56.9 (≈ 144 µM)
COCC1(CNS(=O)(=O)c2ccccc2)CCC1 | 0.696 | 30.7 | 996 | – | – | –
Cc1cc(NC(=O)c2cc(F)cc(F)c2)sn1 | – | 130 | 77.3 | – | – | –
CN1C(=O)[C@H]2CN(CC3=CC[C@H]4C[C@@H]3C4(C)C)C[C@H]2C1=O | 0.768 | 207 | 2390 | – | – | –
Cn1c(CNc2ccc(C(=N)N)cc2)nc2cc(C(=O)N(CCC(=O)O)c3ccccn3)ccc21 | 0.503 | ≤ 4.74 | ≤ 10.7 | – | – | 4.91 (≈ 10.4 µM)
CSc1ccc(C(=O)Nc2cccc(C(=O)NCC(C)C)c2)cc1 | 1.59 | 119 | 2660 | – | – | –
Nc1nc(N)c2c(Cl)c(Br)ccc2n1 | 0.574 | 7.36 | 84.7 | – | – | 24.6 (≈ 90 µM)
NCCC(=O)Nc1ccc2[nH]c(=O)[nH]c2c1 | – | – | – | – | – | 143 (≈ 648 µM)
NC(=O)COc1ccccc1C(=O)Nc1cccc(-c2ccc3ccccc3c2)n1 | 0.296 | 54.8 | 1060 | – | – | –
COc1cccc(C2NC(=O)NC(C)=C2C(=O)OCc2ccc3c(c2)OCO3)c1 (stereo not given) | – | – | – | – | – | 18 (≈ 45.5 µM)
C#CCNC(=O)N(Cc1ccccc1F)C1CCOCC1 | 2.15 | ≤ 4.74 | 35.5 | – | – | –

Results, then the compound that gave them:

MDR1-MDCK efflux ratio | intrinsic clearance, human liver microsomes [mL/min/kg] | intrinsic clearance, rat liver microsomes [mL/min/kg] | fraction unbound, human plasma | fraction unbound, rat plasma | aqueous solubility [µg/mL] | Compound
0.705 | 103 | 707 | – | – | – | COc1ccc(N)c(OCc2ccccc2)c1
5.79 | 166 | 516 | 0.0963 | 0.0189 | 56.4 (≈ 123 µM) | C=CC(=O)N1CCC[C@H](n2c(=O)n(-c3ccc(Oc4ccccc4)cc3)c3c(N)ncnc32)C1
0.785 | 795 | 1680 | – | – | 43 (≈ 130 µM) | COC(=O)c1cc(F)c(C)c(NC(=O)CCCc2ccccn2)c1
93.8 | ≤ 4.74 | 16.6 | – | – | 28.6 (≈ 93.1 µM) | CCCn1cnnc1Cn1ccnc1-c1ccc2occc2c1
0.657 | 19.2 | 223 | – | – | 40.9 (≈ 159 µM) | Cc1ccc(CN(C)c2ncnc3c2cnn3C)o1
41.1 | ≤ 4.74 | 120 | 0.981 | 0.559 | 41.2 (≈ 132 µM) | C[C@@H]1CCN(C(=O)CC#N)C[C@@H]1N(C)c1ncnc2[nH]ccc12
– | 4.93 | 2200 | – | – | 39.1 (≈ 146 µM) | Cc1cccc(OCCn2c(N)nc3ccccc32)c1
17.6 | 54 | 571 | – | – | – | Cc1cccc(NC(=O)CN(C)Cc2nc3ccccc3c(=O)[nH]2)c1C
1.35 | 176 | 1970 | 0.0394 | 0.0393 | 45 (≈ 118 µM) | COc1ccc([C@H]2CN(C(C)=O)[C@@H]3CCCN(Cc4cccc(F)c4)[C@H]23)cc1
1.1 | 27.3 | 80.2 | – | – | 38.2 (≈ 150 µM) | Cc1cc(C)cc(C(=O)Nc2c(C#N)cnn2C)c1
57.3 | 8.83 | 46.5 | – | – | – | C[C@@H]1CC(=O)Nc2cccc(-c3ccc4c(c3)c(-c3cnn(C)c3)nn4C)c2N1
0.662 | 18.3 | 442 | – | – | – | C/C(=C/COc1c2occc2cc2ccc(=O)oc12)CO
– | ≤ 4.74 | 103 | – | – | – | COc1ccc(CN2CCC(c3cc[nH]n3)CC2)cn1
0.864 | ≤ 4.74 | ≤ 10.7 | – | – | 34.9 (≈ 158 µM) | CCN(C(C)=O)c1ccc(C)cc1C(=O)O
0.777 | 35 | 1710 | – | – | 47.1 (≈ 141 µM) | COc1ccc(CN2CCC(c3nc(C(C)C)no3)CC2)c(F)c1
– | 218 | 2800 | – | – | – | Fc1cc(CCNc2ncnc3sccc23)c2c(c1)COCO2
1.02 | 34.5 | 644 | – | – | 20.2 (≈ 59.2 µM) | COc1ccc(CNC(=O)CCCOc2ccc(C(C)=O)cc2)cc1

MDR1-MDCK efflux ratio | intrinsic clearance, human liver microsomes [mL/min/kg] | intrinsic clearance, rat liver microsomes [mL/min/kg] | fraction unbound, human plasma | fraction unbound, rat plasma | aqueous solubility [µg/mL] | Compound
1.82 | 273 | 2040 | – | – | – | CC(C)Cc1nn(C)c(=O)c2c(SCCCO)n(Cc3cccc4ccccc34)cc12
0.595 | 78.5 | 320 | – | – | 7.81 (≈ 22.4 µM) | COc1ccc(-c2csc3ncnc(Oc4ccc(C)nc4)c23)cc1
0.479 | 23.7 | 255 | – | – | – | COc1ccc(-c2ccc(Cn3nc(C)cc3C)cn2)cc1
0.597 | ≤ 4.74 | 57.9 | – | – | 30.3 (≈ 137 µM) | CC(C)CC(=O)Nc1cccnc1N(C)C
– | 34.1 | 209 | – | – | – | Cc1cnc(Nc2ccc(OCCN3CCCC3)cc2)nc1Nc1cccc(S(=O)(=O)NC(C)(C)C)c1
4.71 | 9.13 | 368 | – | – | 2.6 (≈ 8.77 µM) | CN(C)c1ccc(Cn2c(=O)[nH]c3ccccc3c2=O)cn1
6.42 | 70.4 | 381 | – | – | 23.8 (≈ 73.7 µM) | CC(C)c1cc(N2CCc3[nH]nc(C4CC4)c3C2)n2nccc2n1
– | – | – | – | – | 31.3 (≈ 132 µM) | CS(=O)(=O)Cc1cc(-c2ccccc2)on1
– | – | – | – | – | 0.5 (≈ 1.47 µM) | CCn1c(=O)c2c(nc3n2CCN3c2cc(C)cc(C)c2)n(C)c1=O
0.8 | 8.33 | 710 | – | – | – | c1nc(N2CCC3(CCCCC3)C2)c2cn[nH]c2n1
86.8 | 79 | 2040 | 0.0689 | – | 58.9 (≈ 116 µM) | C=CC(=O)N(C)CCOc1c(N)ncnc1-c1cc(F)cc(NC(=O)c2ccc(C3CC3)cc2F)c1C
0.983 | ≤ 4.74 | 26.8 | – | – | 50 (≈ 194 µM) | Cn1ccc(CN2CCC(c3cnccn3)CC2)n1
0.969 | ≤ 4.74 | ≤ 10.7 | – | – | – | CCOc1cccc(NS(C)(=O)=O)n1
7.73 | 7.32 | 90.7 | – | – | – | Cc1ncc(-c2ccccn2)c(CCNC(=O)C2CCCC2)n1
– | – | – | – | – | 37.5 (≈ 115 µM) | COc1ccc(-c2csc(CC(N)=O)n2)cc1Br
1.2 | 62.2 | 468 | – | – | 60.3 (≈ 179 µM) | O=C(COc1ncnc2ccccc12)NC12CC3CC(CC(C3)C1)C2
0.749 | ≤ 4.74 | 107 | – | – | – | COc1cc(OC)cc(-c2c(C)ncnc2OC)c1
